Assay results from the supplement of paper PMC10307832.

Key:
Assay in all cases: relative viability (nuclei count vs DMSO), 5 days (fraction); higher = more cells survive
[1] = compound: C[C@]1(O)C[C@@H](c2nc(-c3ccc4ccc(-c5ccccc5)nc4c3)c3c(N)nccn32)C1 [Linsitinib] + Cc1nc(NC(=O)N2CCC[C@H]2C(N)=O)sc1-c1ccnc(C(C)(C)C(F)(F)F)c1 [Alpelisib] (partner 2 µM)
Outline: (§1)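 A single step with final 0.05% Triton X-100, 1% formaldehyde and 1 ug/ml Hoechst fixed the cells and stained nuclei 5 days after treatment. Lung cancer cell lines in 1536-well plates had been treated by pin tool the day after seeding with one drug alone or a fixed anchor-drug dose plus five library-drug doses (not always all listed) in √10 steps, and nuclei were counted on 4× images. Relative viability is the ratio of nuclei in treated wells to nuclei in vehicle wells, taken as the median of duplicate plates.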

[2] = compound: C[C@]1(O)C[C@@H](c2nc(-c3ccc4ccc(-c5ccccc5)nc4c3)c3c(N)nccn32)C1 [Linsitinib] + Cc1nc(Nc2ncc(C(=O)Nc3c(C)cccc3Cl)s2)cc(N2CCN(CCO)CC2)n1 [Dasatinib] (partner 0.075 µM)
Outline: as §1

[3] = compound: Cc1ccc(C(=O)N(CCCN)[C@@H](c2nc3cc(Cl)ccc3c(=O)n2Cc2ccccc2)C(C)C)cc1 [Ispinesib] + O=C(CCCCCCC(=O)Nc1ccccc1)NO [Vorinostat] (partner 1 µM)
Outline: as §1

[4] = compound: C[C@]1(O)C[C@@H](c2nc(-c3ccc4ccc(-c5ccccc5)nc4c3)c3c(N)nccn32)C1 [Linsitinib] + CC(=O)Nc1cccc(-n2c(=O)n(C3CC3)c(=O)c3c(Nc4ccc(I)cc4F)n(C)c(=O)c(C)c32)c1 [Trametinib] (partner 0.02 µM)
Outline: as §1

Row | Cell Line | relative viability ([1]; first compound 0.01 µM) | relative viability ([1]; first compound 0.03162 µM) | relative viability ([1]; first compound 0.1 µM) | relative viability ([1]; first compound 0.3162 µM) | relative viability ([1]; first compound 1 µM) | relative viability ([2]; first compound 0.01 µM) | relative viability ([2]; first compound 0.03162 µM) | relative viability ([2]; first compound 0.1 µM) | relative viability ([2]; first compound 0.3162 µM) | relative viability ([2]; first compound 1 µM) | relative viability ([3]; first compound 0.001 µM) | relative viability ([3]; first compound 0.003162 µM) | relative viability ([3]; first compound 0.01 µM) | relative viability ([3]; first compound 0.03162 µM) | relative viability ([3]; first compound 0.1 µM) | relative viability ([4]; first compound 0.01 µM) | relative viability ([4]; first compound 0.03162 µM) | relative viability ([4]; first compound 0.1 µM) | relative viability ([4]; first compound 0.3162 µM) | relative viability ([4]; first compound 1 µM)
1 | NCI-H1651 | 1.03 | 0.989 | 0.822 | 0.738 | 0.957 | 0.343 | 0.386 | 0.416 | 0.251 | 0.301 | 0.529 | 0.605 | 0.676 | 0.512 | 0.548 | 0.827 | 0.861 | 0.884 | 0.777 | 0.824
2 | EBC-1 | 0.758 | 0.841 | 1.05 | 0.601 | 0.814 |  |  |  |  |  |  |  |  |  |  |  |  |  |  | 
3 | COR-L 105 | 0.843 | 0.869 | 1.01 | 0.761 | 0.829 | 0.321 | 0.374 | 0.294 | 0.289 | 0.252 | 0.933 | 0.51 | 1.04 | 0.49 | 0.522 | 0.427 | 0.448 | 0.441 | 0.412 | 0.389
4 | RERF-LC-KJ | 0.838 | 0.9 | 0.832 | 0.878 | 0.757 | 0.75 | 0.964 | 0.697 | 0.543 | 0.454 | 0.585 | 0.679 | 0.553 | 0.39 | 0.397 | 0.903 | 0.829 | 0.87 | 0.731 | 0.771
5 | NCI-H1793 | 0.71 | 0.734 | 0.738 | 0.615 | 0.738 | 0.434 | 0.367 | 0.382 | 0.332 | 0.392 | 0.702 | 0.881 | 0.925 | 0.38 | 0.318 | 0.414 | 0.479 | 0.457 | 0.36 | 0.395
6 | CAL-12T | 1.18 | 1.18 | 1.24 | 0.99 | 1.07 | 0.362 | 0.359 | 0.485 | 0.178 | 0.273 | 0.839 | 0.914 | 0.583 | 0.585 | 0.24 | 0.347 | 0.364 | 0.292 | 0.28 | 0.318
7 | NCI-H1993 | 0.723 | 0.568 | 0.701 | 0.75 | 0.64 | 0.645 | 0.584 | 0.509 | 0.738 | 0.475 | 0.984 | 0.738 | 0.74 | 0.515 | 0.438 | 0.46 | 0.494 | 0.398 | 0.476 | 0.504
8 | LXF-289 | 0.992 | 0.988 | 1.1 | 0.841 | 1.02 | 0.244 | 0.203 | 0.182 |  | 0.191 | 0.758 | 0.772 | 0.837 | 0.478 | 0.217 | 0.641 | 0.535 | 0.674 | 0.519 | 0.665
9 | NCI-H1792 | 0.803 | 0.751 | 0.615 | 0.606 | 0.538 |  | 0.927 | 0.771 | 0.529 | 0.215 |  |  |  |  |  | 0.506 | 0.432 | 0.335 | 0.32 | 0.335
10 | LU99A | 0.517 | 0.547 | 0.505 | 0.417 | 0.332 | 0.553 | 0.52 | 0.539 | 0.334 | 0.289 | 0.445 | 0.485 | 0.467 | 0.265 | 0.247 | 0.524 | 0.602 | 0.528 |  | 0.493
11 | SW 1573 | 0.677 | 0.831 | 0.761 | 0.655 | 0.654 | 0.454 | 0.454 | 0.453 | 0.348 | 0.252 | 0.6 | 0.678 | 0.646 | 0.197 | 0.148 | 0.671 | 0.576 | 0.646 | 0.385 | 0.412
12 | COR-L23 | 0.725 | 0.907 | 0.769 | 0.623 | 0.55 | 0.424 | 0.456 | 0.416 | 0.375 | 0.346 | 0.422 | 0.448 | 0.342 | 0.14 | 0.175 | 0.623 | 0.505 | 0.548 | 0.475 | 0.507
13 | A549 | 0.744 | 0.668 | 0.634 | 0.423 | 0.421 |  |  |  |  |  |  |  |  |  |  |  |  |  |  | 
14 | ChaGo-K-1 |  |  |  |  |  | 0.649 | 0.5 | 0.588 | 0.415 | 0.588 | 0.838 | 0.744 | 0.827 | 0.765 | 0.232 | 0.947 | 0.973 | 0.892 |  | 0.961
15 | NCI-H1648 |  |  |  |  |  |  |  |  |  |  | 0.594 | 0.682 | 0.422 | 0.634 | 0.428 | 0.517 | 0.482 | 0.53 | 0.388 | 0.385
16 | SW 900 |  |  |  |  |  | 0.537 | 0.739 | 0.85 | 0.319 | 0.322 | 0.523 | 0.606 | 0.478 | 0.449 | 0.294 | 0.741 | 0.986 | 0.762 | 0.72 | 0.674
17 | ABC-1 | 0.925 | 0.726 | 0.912 | 0.76 | 0.719 | 0.574 | 0.469 | 0.504 | 0.541 | 0.448 | 1.14 | 1.3 | 1.05 |  | 0.548 |  |  |  |  | 
18 | NCI-H1563 | 0.909 | 0.924 | 0.85 | 0.861 | 0.928 | 0.47 | 0.485 | 0.384 | 0.812 | 0.378 |  |  |  |  |  |  |  |  |  | 
19 | NCI-H2342 |  |  |  |  |  | 0.307 | 0.306 | 0.306 | 0.353 | 0.298 | 0.664 | 0.724 | 0.797 | 0.75 | 0.554 | 0.788 | 0.886 | 0.791 | 0.777 | 0.729
20 | NCI-H1623 |  |  |  |  |  | 0.561 | 0.527 | 0.45 |  | 0.415 |  |  |  |  |  |  |  |  |  | 
21 | NCI-H1299 | 1.05 | 1.07 | 1.12 | 1.01 | 1.04 |  |  |  |  |  |  |  |  |  |  |  |  |  |  | 
22 | Calu-6 | 1.01 | 0.919 | 1.04 | 1.03 | 0.794 |  |  |  |  |  |  |  |  |  |  |  |  |  |  | 
